The text below walks through data of patent publication EP1951194B1, “ANTIMICROBIAL DECAPEPTIDE COMPOSITION FOR ORAL HYGIENE” (U.S. Government, as represented by the Secretary of the Army, priority 2005, dated 2018).

Data set [1] relates to oral biofilms. Briefly: In vitro plaque assay, viable counts of biofilms on saliva-coated HA disks. The note with it: for reduction of viability, intact 66 h-old oral biofilms, compared to water treatment: KSL 200 µg/ml, benzalkonium chloride 0.001%, alone or combined, chlorhexidine positive control. It is filed as cell-based, human salivary bacteria. How it is done:
In conjunction with the dual flow cell system, a modification of an in vitro plaque model of biofilm formation described by Guggenheim et al. (Guggenheim et al., 2001) was used to determine the effects of tested antimicrobials and other agents on developed oral biofilms (see Appendix I for details). HA disks (Clarkson, south Williamsport, PA) were employed as substrates for salivary bacteria to form biofilms. […] Following 30 min exposure at 37°C, disks were rinsed with 3 × 1 ml of saline and transferred to sterile 15 ml polypropylene tubes containing 1 ml PBS. Biofilm cells adherent to surfaces (after treatment) were recovered by sonicating for 2 min at 5 watts with a Microson ultrasonic cell disrupter equipped with a cup horn (Misonix Inc., Farmingdale, NY). Settings including the time interval used in the sonication were pre-determined empirically to yield maximal recovery of adherent biofilm cells. The effect of KSL on disrupted biofilms was assessed by recovering biofilm cells from HA disks (45 h-old biofilms) through sonication as described above. The detached biofilm cells (in sterile dH2O) were mixed with an equal volume of aqueous KSL to obtain a final peptide concentration of 200 µg/ml, and the reaction mixtures incubated at 37°C for 30 min. The interactions of KSL and suspended biofilm cells were terminated by washing in PBS. To determine the effect of the surface-active agent (benzalkonium chloride; Sigma, St. […] Viable counts of biofilm cells derived from treated disks or disrupted biofilms were determined by spiral plating serially diluted samples onto blood agar plates. […] The 45 h-old biofilms were exposed to chlorhexidine for 1 min, and to water for 30 min at 37°C.

The test system of data set [2] is oral biofilms. Briefly: Live/dead staining of treated biofilms, confocal laser scanning microscopy. It is filed as cell-based, human salivary bacteria. Conditions: biofilms on saliva-coated HA surfaces, BacLight, compared to control.
Procedure: Untreated (a-b) and treated (c-d). Images were obtained at intervals of 2 h (a, c) and 8 h (b, d) following inoculation. […] Images of treated versus untreated biofilm cells were obtained at intervals of 2 h (a, d), 6 h (b, e), and 10 h (c, f) after inoculation of salivary bacteria into the parallel chambers of the dual flow cell. […] (C) Confocal images of control and treated biofilms grown on saliva-coated HA surfaces. Live/Dead BacLight™ Viability kit (Molecular Probes, Eugene, OR) was used to assess the viability of biofilm cells exposed to different treatments. BacLight assay solution was prepared as described by the manufacturer and the specimens were stained in dark at room temperature for 15 min. […] An excitation wavelength of 488 nm was used and the fluorescence light emitted was collected by two separate emission filters, 500-530 nm (SYTO 9, live), and 650-710 nm (propidium iodide, dead).
Data set [3] is classed as physicochemical. The note with it: pH 5.7. As for the experimental part:
Test solutions of KSL were prepared using a stock peptide solution of 10 mg/ml in deionized water. The degradation of KSL peptide was investigated in sodium acetate (pH 4), sodium phosphate (pH 7.4) and sodium borate (pH 9) buffers at 0.1 M buffer concentration. Each buffer solution containing 200 µg/ml of KSL was incubated in a temperature-controlled oven at 25, 37 and 55°C, respectively. Samples were taken at pre-determined times and analyzed under HPLC conditions described above. The stability of KSL was studied at 37°C in artificial saliva over a three day period. Artificial saliva was used in the in vitro release studies in an attempt to simulate actual conditions of use. The ingredients of the artificial saliva were as follows: sodium chloride, 0.844 g; potassium chloride, 1.200 g; calcium chloride dihydrate, 0.193 g; magnesium chloride hexahydrate, 0.111 g; potassium phosphate dibasic, 0.342 g; water to make to 1000 ml. The pH was adjusted with hydrochloric acid solution to pH 5.7 ± 0.1 [26].

Data set [4] is classed as physicochemical. As for the experimental part: The chewing gum formulations were prepared following a procedure described previously. The gum base was heated at a temperature between 50 and 60°C for melting. When the gum base was of the proper fluid consistency, the KSL was added as a fine powder along with the other components. The temperature was kept constant while mixing the components with the gum base in a mortar. After mixing, the homogenous chewing gum mixture was extruded, cut into squares of approximate shape and size and hardened at room temperature overnight. The composition of the gum was as follows: 550 mg of gum base, 420 mg of sorbitol, 10 mg of mannitol, 10 mg of saccharin, and 10, 20 or 30 mg of KSL (total weight: approximately 1 g). In vitro release study of KSL from chewing gums was carried out using an in vitro chewing release apparatus consisting of two modules (AB FIA, Lund, Sweden) (Fig. 1). Each module consists of a thermostatted glass cell in which two vertically oriented pistons holding an upper and a lower chewing plate are mounted. The cells were filled with 40 ml of artificial saliva and the chewing gum was loaded onto the lower chewing surface. […] The released amount of KSL was determined by RP-HPLC.

“Also recorded” adds a separate entry of the source. Ends that are not written are not given here.

As for `[H]/N=C(\N/C(=N/[H])NCCCCCCNC(=N)NC(=N)Nc1ccc(Cl)cc1)Nc1ccc(Cl)cc1` [chlorhexidine, chlorhexidine digluconate], the “reduction of viable counts, intact biofilms” value in the data set on oral biofilms [1] (intact 45-h-old biofilms, KSL 200 µg/ml 30 min at 37°C, chlorhexidine 0.12% 1 min) is recorded as “more reduction in viability; also recorded: larger reduction of viable counts”. The “viability of biofilm cells by live/dead staining” value with oral biofilms [2] was “significantly reduced the viability”.

Take “KKVVFKVKFK-NH2 [KSL, Lys-Lys-Val-Val-Phe-Lys-Val-Lys-Phe-Lys-NH2]”: the “degradation in artificial saliva (HPLC)” value in data set [3] is reported as “no degradation peak detected”. Besides, the “stability of KSL in the gum formulations manufactured at 50-60°C (HPLC of released KSL)” value in data set [4] is “only an intact KSL peak”.

benzalkonium chloride: the “reduction of viability, intact 66 h-old oral biofilms, compared to water treatment” value is given as “less effect on the viability” in the data set with oral biofilms [1] and “no significant reductions in viability” in the data set with oral biofilms [1] (listed as Bzl). Further, the “viability of biofilm cells by live/dead staining” value in the data set with oral biofilms [2] is “less impact on the viability”.
